Tests used:
Experiment in all cases: relative viability (nuclei count vs DMSO), 5 days (fraction); higher = more cells survive
[1] = compound: CN(NC(=O)CC(=O)NN(C)C(=S)c1ccccc1)C(=S)c1ccccc1 [Elesclomol] + O=C(c1cc(Cc2n[nH]c(=O)c3ccccc23)ccc1F)N1CCN(C(=O)C2CC2)CC1 [Olaparib] (partner 8 µM)
How it was run: (§1)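 Medians of duplicate plates are given as relative viability. That measure is the nuclei count in treated wells divided by the count in vehicle wells. Counts were taken on 4× images of lung cancer cell lines in 1536-well plates, 5 days after pin-tool dosing the day after seeding with one drug alone or a fixed anchor-drug dose plus five library-drug doses (not always all listed) in √10 steps.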

[2] = compound: CN(NC(=O)CC(=O)NN(C)C(=S)c1ccccc1)C(=S)c1ccccc1 [Elesclomol] + O=C(CCCCCCC(=O)Nc1ccccc1)NO [Vorinostat] (partner 1 µM)
How it was run: as §1

[3] = compound: CN(NC(=O)CC(=O)NN(C)C(=S)c1ccccc1)C(=S)c1ccccc1 [Elesclomol] + Nc1ncn([C@H]2C[C@H](O)[C@@H](CO)O2)c(=O)n1 [Decitabine] (partner 2 µM)
How it was run: as §1

[4] = compound: CN(NC(=O)CC(=O)NN(C)C(=S)c1ccccc1)C(=S)c1ccccc1 [Elesclomol] + Cc1nc(NC(=O)N2CCC[C@H]2C(N)=O)sc1-c1ccnc(C(C)(C)C(F)(F)F)c1 [Alpelisib] (partner 2 µM)
How it was run: as §1

[5] = compound: CN(NC(=O)CC(=O)NN(C)C(=S)c1ccccc1)C(=S)c1ccccc1 [Elesclomol] + Nc1nc2[nH]cc(CCc3ccc(C(=O)N[C@@H](CCC(=O)O)C(=O)O)cc3)c2c(=O)[nH]1 [Pemetrexed] (partner 0.2 µM)
How it was run: as §1

Cell Line	relative viability ([1]; first compound 0.003162 µM)	relative viability ([1]; first compound 0.01 µM)	relative viability ([1]; first compound 0.03162 µM)	relative viability ([1]; first compound 0.1 µM)	relative viability ([2]; first compound 0.003162 µM)	relative viability ([2]; first compound 0.01 µM)	relative viability ([2]; first compound 0.03162 µM)	relative viability ([2]; first compound 0.1 µM)	relative viability ([3]; first compound 0.003162 µM)	relative viability ([3]; first compound 0.01 µM)	relative viability ([3]; first compound 0.03162 µM)	relative viability ([3]; first compound 0.1 µM)	relative viability ([4]; first compound 0.003162 µM)	relative viability ([4]; first compound 0.01 µM)	relative viability ([4]; first compound 0.03162 µM)	relative viability ([4]; first compound 0.1 µM)	relative viability ([5]; first compound 0.003162 µM)	relative viability ([5]; first compound 0.01 µM)	relative viability ([5]; first compound 0.03162 µM)	relative viability ([5]; first compound 0.1 µM)
NCI-H647	0.547	0.357	0.128	0.0704	0.24	0.337	0.133	0.0479	0.355	0.293	0.259	0.0841	1.12	0.998	0.245	0.017	0.172	0.158	0.139	0.0481
NCI-H2009	0.643	0.515	0.128	0.109	0.679	0.279	0.162	0.0886	0.425	0.245	0.173	0.118	1.21	0.885	0.458	0.14	1.02	0.982	0.312	0.115
EPLC-272H	0.592	0.157	0.132	0.178	0.178	0.0788	0.133	0.129	0.35	0.134	0.0913	0.103	1.07	–	0.861	0.249	0.285	0.118	0.154	0.196
NCI-H520	0.333	0.32	0.152	0.0887	0.775	0.662	0.225	0.0994	0.526	0.411	0.313	0.143	0.884	0.667	0.563	0.0734	0.724	0.779	0.335	0.109
NCI-H2405	0.737	0.693	0.386	0.353	0.933	0.415	0.314	0.276	0.775	0.643	0.336	0.324	0.783	0.312	0.223	0.224	1.03	0.707	0.323	0.297
NCI-H2085	0.874	0.669	0.497	0.282	0.835	0.783	0.451	0.308	0.561	0.449	0.355	0.297	0.895	0.621	0.555	0.286	0.911	0.902	0.64	0.168
NCI-H322M	0.665	0.572	0.388	0.208	0.72	0.42	0.289	0.191	0.608	0.511	0.402	0.29	0.933	–	0.645	0.173	0.515	0.368	0.293	0.0948
NCI-H1944	0.421	0.412	0.358	0.209	0.652	0.578	0.459	0.166	0.441	0.498	0.401	0.253	0.887	0.736	0.881	0.825	0.613	0.724	0.572	0.189
LC-2-ad	0.722	0.622	0.277	0.197	0.642	0.608	0.24	0.169	0.763	0.653	0.391	0.218	0.85	0.495	0.111	0.116	0.294	0.269	0.236	0.201
NCI-H358	0.758	0.346	0.107	0.138	0.62	0.0764	0.0906	0.0819	0.171	0.108	0.0885	0.0726	0.43	0.163	0.166	0.142	0.159	0.123	0.142	0.133
NCI-H2170	0.55	0.558	0.638	0.344	0.808	0.683	0.777	0.408	0.461	0.48	0.48	0.38	0.808	0.722	0.708	0.403	0.28	0.28	0.27	0.26
A-427	0.52	0.424	0.232	0.164	0.823	0.755	0.192	0.15	0.601	0.453	0.285	0.194	1.04	1.07	1.15	0.558	0.937	0.707	0.201	0.186
NCI-H1666	0.666	0.703	0.662	0.603	1.05	0.91	0.836	0.714	0.739	0.717	0.522	0.47	0.765	0.232	0.277	0.116	0.998	0.801	0.817	0.724
LOU-NH91	0.898	0.825	0.829	0.606	1.02	0.826	0.782	0.66	0.868	0.775	0.756	0.72	0.717	0.643	0.513	0.498	0.401	0.404	0.487	0.375
ABC-1	0.23	0.428	0.248	0.342	0.426	0.249	0.262	0.244	0.409	0.345	0.318	0.279	0.292	0.313	0.23	0.256	–	–	–	–
NCI-H1651	0.185	0.184	0.192	0.135	0.557	0.527	0.519	0.434	0.596	0.608	0.577	0.4	0.762	0.435	0.235	0.0895	0.638	0.61	0.535	0.432
201T	0.843	0.843	0.844	0.705	0.968	0.995	0.869	0.68	0.869	0.844	0.818	0.854	0.985	1.02	1.03	0.964	0.361	0.369	0.309	0.394
NCI-H3122	0.606	0.665	0.563	0.105	0.652	1.02	0.881	0.111	0.415	0.455	0.397	0.0861	0.706	0.759	0.758	0.159	0.177	0.229	0.194	0.128

Cell Line	relative viability ([1]; first compound 0.003162 µM)	relative viability ([1]; first compound 0.01 µM)	relative viability ([1]; first compound 0.03162 µM)	relative viability ([1]; first compound 0.1 µM)	relative viability ([2]; first compound 0.003162 µM)	relative viability ([2]; first compound 0.01 µM)	relative viability ([2]; first compound 0.03162 µM)	relative viability ([2]; first compound 0.1 µM)	relative viability ([3]; first compound 0.003162 µM)	relative viability ([3]; first compound 0.01 µM)	relative viability ([3]; first compound 0.03162 µM)	relative viability ([3]; first compound 0.1 µM)	relative viability ([4]; first compound 0.003162 µM)	relative viability ([4]; first compound 0.01 µM)	relative viability ([4]; first compound 0.03162 µM)	relative viability ([4]; first compound 0.1 µM)	relative viability ([5]; first compound 0.003162 µM)	relative viability ([5]; first compound 0.01 µM)	relative viability ([5]; first compound 0.03162 µM)	relative viability ([5]; first compound 0.1 µM)
A549	0.289	0.22	0.189	0.0697	–	–	–	–	0.293	0.22	0.261	0.133	0.731	0.229	0.0735	0.0217	–	–	–	–
NCI-H727	0.587	0.7	0.712	0.416	1.14	1.18	1.03	0.641	0.98	0.836	0.847	0.528	0.545	0.258	0.117	0.0342	–	–	–	–
NCI-H441	0.48	0.602	0.311	0.148	0.553	0.729	0.445	0.17	0.22	0.209	0.216	0.127	0.701	0.624	0.233	0.0722	0.239	0.234	0.18	0.0576
HOP-62	0.487	0.191	0.0744	0.08	0.659	0.469	0.477	0.136	0.189	0.231	0.214	0.137	1.05	0.712	0.797	0.113	0.369	0.333	0.224	0.113
RERF-LC-KJ	0.613	0.473	0.326	0.323	0.445	0.406	0.473	0.256	0.414	0.288	0.297	0.222	0.702	0.352	0.252	0.275	0.412	0.369	0.332	0.268
HCC-44	0.965	0.914	0.976	1	1.09	1.16	1.16	1.08	0.913	0.941	0.952	0.94	0.812	0.723	0.768	0.371	0.603	0.607	0.685	0.639
LCLC-103H	0.724	0.737	0.815	0.639	0.82	0.496	0.877	0.568	0.765	0.686	0.734	0.742	1.17	0.883	1.02	0.955	0.476	0.483	0.467	0.431
NCI-H1915	0.256	0.243	0.231	0.169	0.517	0.324	0.573	0.205	0.254	0.265	0.277	0.205	1.05	–	1.05	0.879	0.499	0.456	0.481	0.286
ChaGo-K-1	0.423	0.396	0.232	0.125	0.791	0.638	0.338	0.146	0.531	0.473	0.415	0.163	–	–	–	–	0.268	0.255	0.204	0.147
PC-14	0.287	0.0846	0.0176	0.0205	0.0807	0.0343	0.0162	0.0149	0.126	0.0523	0.0385	0.0283	0.913	0.558	0.0506	0.0344	0.14	0.0457	0.0214	0.0198
NCI-H1703	0.173	0.0985	0.093	0.0575	–	–	–	–	–	–	–	–	0.225	0.135	0.0986	0.0874	–	–	–	–
NCI-H2228	0.537	0.365	0.195	0.0479	0.628	0.177	0.125	0.0717	–	–	–	–	0.569	0.5	0.198	0.0389	0.307	0.308	0.143	0.0377
NCI-H1650	0.583	0.291	0.145	0.0879	0.3	0.22	0.146	0.11	0.306	0.219	0.16	0.0942	–	–	–	–	0.304	0.294	0.333	0.095
NCI-H1792	0.5	–	0.395	0.169	–	–	–	–	0.53	–	0.523	0.443	0.621	0.505	0.718	0.858	0.79	–	0.793	0.277
NCI-H1563	–	–	–	–	–	–	–	–	–	–	–	–	0.687	0.613	0.537	0.527	0.741	0.698	0.544	0.619
IA-LM	0.892	0.526	0.181	0.115	0.863	0.858	0.999	0.847	–	–	–	–	0.789	0.164	0.076	0.027	–	–	–	–
CAL-12T	0.64	0.321	0.117	0.0718	0.66	0.245	0.101	0.0721	–	–	–	–	1.19	0.239	0.312	0.0757	1.03	0.576	0.119	0.0739

Source: the supplement of paper PMC10307832
